“Also recorded” adds a separate entry of the source.
What was measured:
PSD-95 = experiment: Western blotting of PSD-95 in mouse hippocampus; format: in vivo, ICR mice; details: acyclovir 500 mg/kg, DXMT 2 mg/kg, donepezil 2.5 mg/kg
Procedure: (§1) The acyclovir, DXMT and donepezil were dissolved in water.
(§2) Mice recover for 3 d without any experiments.
(§3) One day after the Morris water maze test, mice are deeply anesthetized and transcardially perfused with an ice-cold saline. The brain is quickly dissected. Hippocampal proteins are extracted and stored at −80° C. prior to use in a Western blotting assay (4 mice per group) and an enzyme-linked immunosorbent assay (ELISA, 3 mice per group). Intact brain tissues (3 mice per group) are stored in a formalin solution at […] prior to staining using immunohistochemistry (IHC).
(§4) The Western blotting assay is conducted as previously described^11. Briefly, the brain tissues from hippocampus are extracted in a lysis buffer for 1 min and centrifuged at 16,000 g for 10 min. Protein levels in a supernatant are estimated by a Bradford analysis, the proteins are separated on an SDS-polyacrylamide gel, and electrotransferred to a polyvinylidene fluoride membrane. After 2 h of incubation with 5% skim milk in TBST, incubation is conducted for 12 h with corresponding antibodies Tau, IL-17 (Santa Cruz Biotechnology, Shanghai, China), pSer396-Tau, PSD-95, and β-actin (Cell Signaling Technology, Inc., Beverly, Mass., USA). […] The data is expressed as a ratio of an optical density (OD) compared to the control and a statistical analysis.

interleukin-6 (IL-6) = experiment: ELISA of IL-6 in mouse hippocampus; format: in vivo, ICR mice; details: acyclovir 500 mg/kg, DXMT 2 mg/kg, donepezil 2.5 mg/kg
Procedure: as §1, §2, §3
Determination was conducted on concentrations of interleukin-6 (IL-6) and tumor necrosis factor-α (TNF-α) in mouse hippocampus using freshly prepared brain tissues. Brain samples are homogenized in a 0.1M phosphate buffered saline. A resulting brain extract is centrifuged to 2,000 g at 4° C. for 15 min. Concentrations of IL-6 and TNF-α are determined with an ELISA kit (Excell Bio, Shanghai, China) according to the manufacturer's protocol. An absorbance is read.

Aβ oligomer-treated mice [1] = experiment: Open field experiment (motor activity); details: day 17, 5 min, acyclovir 500 mg/kg, DXMT 2 mg/kg
Procedure: Zhejiang Academy of Medical Sciences has provided ICR mice weighing about 25 g. The mice are subjected to a 12-h illumination/darkness cycle at 22±2° C. (humidity: 50±10%) and are provided with water and standard food. The acyclovir, DXMT and donepezil were dissolved in water. The mice are randomly divided into 6 groups with 10 mice in each group, including: a control group, an Aβ oligomer group, an Aβ+500 mg/kg acyclovir group, an Aβ+2 mg/kg DXMT group, an Aβ+500 mg/kg acyclovir, 2 mg/kg DXMT group, and an Aβ+2.5 mg/kg donepezil group. The mice are anesthetized by intraperitoneal injection of sodium pentobarbital (50 mg/kg) and placed in a stereotaxic apparatus (RWD Life Science Co., Ltd., Shenzhen, China).
On day 1, the Aβ oligomer was injected into a bilateral ventricle region. A micro-dose is injected (1 μl/side) over 5 min. To reduce backflow, the cannula is left in place for 5 min. […] Mice recover for 3 d without any experiments. […]
To analyze a motor activity and exploratory behavior, the mice are housed in an open field (50 cm×50 cm×39 cm) with white plywood walls and brown floors. […] The number of crossed lines of four paws and the number of feedings are recorded using a hand-held counter and stopwatch, which are used to mark the motor activity and exploratory behavior. […]

pSer396-Tau = experiment: Western blotting of pTau in mouse hippocampus; format: in vivo, ICR mice; details: acyclovir 500 mg/kg, DXMT 2 mg/kg
Procedure: as §1, §2, §3, §4

[2] = test system: glial fibrillary acidic protein (GFAP); experiment: IHC staining of GFAP (astrocyte activation) in hippocampus; format: in vivo, ICR mice; details: acyclovir 500 mg/kg, DXMT 2 mg/kg, donepezil 2.5 mg/kg
Procedure: as §1, §2, §3
(§5) IHC staining is conducted according to previously reported protocols^11. Briefly, after the Morris water maze test, the brains are dissected and incubated with 4% paraformaldehyde for 1 d. Brain specimens are dehydrated, paraffin-embedded, and sliced into 4-micron slices. Hippocampal sections are dewaxed and rehydrated. Treatment with 3% H2O2 is conducted for 10 min to inhibit a cellular peroxidase activity. Sections are incubated overnight at 4° C. with primary antibodies to a CD45 antigen and a glial fibrillary acidic protein (GFAP). […] The sections are labeled with DAB and analyzed colorimetrically. A mean OD of the area is analyzed using Image Pro 6.0 (Media Cybernetics Inc., MD, USA). […] Positive area and OD are determined by measurements on randomly selected microscope fields on each slide. […]

Aβ oligomer-treated mice [3] = experiment: Morris water maze test (spatial cognition); format: in vivo, ICR mice; details: acyclovir 500 mg/kg, DXMT 2 mg/kg, donepezil 2.5 mg/kg; for time in the target area compared with the Aβ group: probe trial, platform removed, 90 sec
Procedure: as §1, §2
The spatial memory is assessed with the Morris water maze test^10. The Morris water maze is a circular pool (110 cm in diameter) filled with water at a temperature of 23±2° C., and has a platform. Except on a last day, the platform is always placed in a center of a northwest quadrant. Swimming tracks are recorded by a video recorder connected to a computer. Each mouse is trained on positioning the platform over a four-day trial, and learning is assessed daily for four consecutive days. The time mice take to enter a hidden platform is measured. On the last day, the platform is removed and the mice are trained to swim for 90 sec for a probe trial. The swimming times are recorded in the four quadrants of the pool. A tendency to appear in the quadrant occupied before the platform indicates a spatial memory ability.

HSV-1-infected cells = details: cited from earlier work
IL-17 = experiment: Western blotting of IL-17 in mouse hippocampus; format: in vivo, ICR mice; details: acyclovir 500 mg/kg, DXMT 2 mg/kg, donepezil 2.5 mg/kg
Procedure: as §1, §2, §3, §4

CD45 = experiment: IHC staining of CD45 (microglia activation) in hippocampus; format: in vivo, ICR mice; details: acyclovir 500 mg/kg, DXMT 2 mg/kg
Procedure: as §1, §2, §3, §5

[4] = Body weight of Aβ oligomer-treated mice during treatment; format: in vivo, ICR mice; details: last day of experiment, gavage 13 d twice a day, acyclovir 500 mg/kg, DXMT 2 mg/kg, donepezil 2.5 mg/kg
Procedure: as §1, §2
Briefly, on day 1, the Aβ oligomers are injected into both sides of the mouse hippocampus. The mice are let recover for 3 d. On days 4 to 16, mice are treated differently for 13 d. On day 17, a motor function of the mice is examined by the open field test. On days 18-24, the spatial cognition is tested by the Morris water maze test. On day 25, the mice are sacrificed for biochemical studies.
Digestive disturbance is one of the common adverse effects of acyclovir. Long-term treatment with acyclovir may cause indigestion and malnutrition, leading to weight loss. Therefore, the body weight of the mice is measured every 2 d to 3 d during the experiment.

Structure (SMILES)	expression of PSD-95 compared with the Aβ group (PSD-95)	Aβ-induced increase in IL-6 expression compared with the Aβ group (interleukin-6 (IL-6))	motor function (number of standing, number of crossing lines) (Aβ oligomer-treated mice [1])	Aβ-induced increase in pTau expression compared with the Aβ group (pSer396-Tau)	Aβ-induced increase in the mean OD of GFAP compared with the Aβ group [2]	time in the target area compared with the Aβ group (Aβ oligomer-treated mice [3])	inhibition of aberrant tau phosphorylation (HSV-1-infected cells) [%]	reduction of HSV-1-induced Aβ accumulation (HSV-1-infected cells) [%]	Aβ-induced increase in IL-17 expression compared with the Aβ group (IL-17)	Aβ-induced increase in CD45 mean OD compared with the Aβ group (CD45)	body weight compared with the control group [4]	time to find the hidden platform (latency) compared with the Aβ group (Aβ oligomer-treated mice [3]; last day of training, gavage 13 d)
Nc1nc2c(ncn2COCCO)c(=O)[nH]1 [acyclovir]	does not alter the expression of PSD-95	does not significantly reduce IL-6 production	do not significantly alter the motor function	significantly attenuate	significantly reduce; also recorded: neither acyclovir nor donepezil treatment can change	do not show a better performance	~100	70	cannot reduce the expression of IL-17	can inhibit the activation of microglia	–	–
COc1cc2c(cc1OC)C(=O)C(CC1CCN(Cc3ccccc3)CC1)C2 (centres unmarked) [donepezil]	does not alter the expression of PSD-95	does not alter the expression of IL-6	–	–	neither acyclovir nor donepezil treatment can change	significantly longer	–	–	does not alter the expression of IL-17	–	does not change the body weight	significantly shorter
